Experimental data reported in US12527796B2, “[6R]-MTHF—an efficient folate alternative in 5-fluorouracil based chemotherapy” (Isofol Medical AB, priority 2017, dated 2026).

Assays:
Thymidylate Synthase = Thymidylate Synthase (Lacticaseibacillus casei, UniProt P00469); settings: cited from earlier work
colorectal cancer = settings: Phase IIb; cited from earlier work
pancreas cancer = settings: combined with 5-FU; cited from earlier work
[1] = system: metastatic colorectal carcinoma; settings: modulation of 5-FU with LV; cited from earlier work
[2] = system: stage IV colorectal cancer; assay: ISO-CC-005 open-label Phase I/II dose cohort trial of [6R]-MTHF with 5-FU (response per RECIST 1.1, adverse events); format: in vivo, human
Excerpt: As used herein, the term ORR shall refer to the Objective Response Rate, ie. the proportion of patients with reduction in tumor burden of a predefined amount. […] (Note: the appearance of one or more new lesions is also considered progression). Stable Disease (SD): • Neither sufficient shrinkage to qualify for PR nor sufficient increase to qualify for PD, taking as reference the smallest sum diameters while on study. ([…], Schwartz […], Ford R, et al. New response evaluation criteria in solid tumours: revised RECIST guideline (version 1.1). Eur J Cancer. 2009 January; 45(2):228-47) […] A maximum of 63 Stage IV CRC patients eligible for 1st, 2nd or 3rd line treatment are planned to be enrolled in this study disposed as follows: three to six patients in each dose cohort, and three additional patients in one dose cohort in each treatment arm according to the following study design (Table 1). [table] […] Dosing: Rapid i.v. bolus injections at a fixed dose of 30, 60, 120 or 240 mg/m^2, will be administered approximately 30 minutes after administration of 5-FU on Day 1 and Day 2 in each treatment cycle in all ^dose cohorts of the study (i.e. regardless of treatment arm). The regimen will be repeated every second week for up to eight (8) cycles, i.e. up to sixteen (16) weeks. 5-FU (5-fluorouracil) is formulated as injection solution. Dosing: 5-FU will be administered as i.v. bolus injections on Day 1 and Day 2 in each treatment cycle. In Arm #2 and Arm #3 of the study, 5-FU will be administered approximately 60 minutes after start of Oxaliplatin or Irinotecan administration, respectively (see description below). The regimen will be repeated every second week for up to eight (8) cycles, i.e. up to sixteen (16) weeks. ISO-CC-005 is an open clinical phase I/II tolerability and dose definition study designed to evaluate safety and define the [6R]-MTHF dose for continued development. It evaluates four doses of [6R]-MTHF in combination with 5-FU with or without the different combinations of irinotecan or oxaliplatin and bevacizumab in patients with metastatic Colorectal Cancer using 4 different protocols: • MOD+5-FU: [6R]-MTHF in combination with 5-FU only, similar to Nordic FLV protocol • MOD+[…] in combination with 5-FU and Irinotecan, similar to Nordic FLIRI protocol • MOD+FLOX: [6R]-MTHF in combination with 5-FU and Oxaliplatin, similar to Nordic FLOX protocol • MOFOX: [6R]-MTHF in combination with 5-FU and Oxaliplatin, similar to FOLFOX-6 protocol The patients belong to several treatment lines ranging from first to third and even fifth lines. The results of the study are regularly assessed, and the results from the group of patients undergoing 1st line treatment and partially the group of patients undergoing 2nd, 3rd and 5th line treatment have previously (in August 2017) and again (December 2017) been analyzed. The clinical study is still ongoing. […] (see FIG. 2). Four (4) 1st line patients could not be followed for the additional 8 weeks' treatment due to study protocol formalities. No further 1st line patients had been analysed at this point.

[3] = 1st line patients, 8 weeks' treatment
[4] = 30 patients, 1st, 2nd, 3rd and 5th line, after 8 weeks' treatment

Sequence of Thymidylate Synthase (P00469 whole entry): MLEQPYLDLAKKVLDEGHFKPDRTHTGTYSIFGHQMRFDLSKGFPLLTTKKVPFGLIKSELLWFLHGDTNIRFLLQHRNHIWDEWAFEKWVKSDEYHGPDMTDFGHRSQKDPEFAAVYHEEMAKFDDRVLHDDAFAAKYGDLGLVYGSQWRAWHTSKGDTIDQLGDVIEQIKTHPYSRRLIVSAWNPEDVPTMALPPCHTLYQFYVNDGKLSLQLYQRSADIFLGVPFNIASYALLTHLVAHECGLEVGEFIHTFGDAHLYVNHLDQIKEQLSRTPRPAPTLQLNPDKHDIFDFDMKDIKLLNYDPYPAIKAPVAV

## Nc1nc2c(c(=O)[nH]1)N1CN(c3ccc(C(=O)N[C@@H](CCC(=O)O)C(=O)O)cc3)C[C@@H]1CN2 (single isomer, unassigned) [[6S]-isomer]
Thymidylate Synthase
  effect on the natural [6R]-isomer as co-substrate for TS: partial competitive inhibitor

## Nc1nc2c(c(=O)[nH]1)N1CN(c3ccc(C(=O)N[C@@H](CCC(=O)[O-])C(=O)[O-])cc3)CC1CN2.[Ca+2] (stereo partly drawn) [CoFactor, [6R,S]-5,10-methylene-THF Ca salt]
Colorectal cancer
  differences between the study arms (CoFactor vs leucovorin) with regard to efficacy or safety: no significant differences
Pancreas cancer
  patients with clinical benefit, defined as stable disease or tumor response: 40%

## Nc1nc2c(c(=O)[nH]1)N(C=O)C(CNc1ccc(C(=O)N[C@@H](CCC(=O)O)C(=O)O)cc1)CN2 (stereo partly drawn) [Leucovorin]
[1]
  time-to-progression (TTP) of disease: prolongation of the time-to-progression (TTP)

## Nc1nc2c(c(=O)[nH]1)N1CN(c3ccc(C(=O)N[C@@H](CCC(=O)O)C(=O)O)cc3)C[C@H]1CN2 [[6R]-MTHF, [6R]-5,10-methylenetetrahydrofolate]
[2]; [3]
  ORR: 50%
  patients with clinical benefit, defined as stable disease or partial response: 100%
[2]; 1st line patients, 16 weeks of treatment
  patients showing clinical benefit: 100%
[2]; 2nd, 3rd or 5th line patients (25), after 8 weeks' treatment
  patients with clinical benefit, defined as stable disease or partial response: 64%
[2]; [4]
  patients with partial response: 27%
  patients with progressive disease: 13%
  patients with stable disease: 60%
[2]; [6R]-MTHF combined with 5-FU
  clinical benefit, defined as stable disease or tumor response, treated patients: > 90%
[2]; colorectal cancer patients, initial 5-FU followed by [6R]-MTHF
  ORRs (objective response rates): 50-60%
[2]; eight 1st line patients, 16 weeks of treatment
  progression in the cancer after the initial 8 weeks' treatment: no progression
[2]; in vivo
  toxicity of 5-FU when combined with [6R]-MTHF, compared to 5-FU with other folate adjuvants: reduced
[2]; of eight 1st line patients
  patients showing Partial Response at 16 weeks: 5 patients
  patients showing Stable Disease at 16 weeks: 3 patients
[2]; reference baseline sum diameters, with 5-FU
  treated patients with at least a 25% decrease in the sum of the diameters of target lesions: ~65%
